Reference: ChEMBL document CHEMBL5365553, “Design of Synthetic Surrogates for the Macrolactone Linker Motif in Coibamide A” (ACS Med Chem Lett, 2023)
Calls of active or inactive are those of the source. No cut-off for these calls is given here. Positions of bridges follow the written chain, without caps; N, C: chain ends. Non-standard residues stand in square brackets, D forms with d. Residues, ends and D or L forms follow the SMILES beside them. *: point of attachment. NMe2Val = CC(C)[C@@H](C(=O)*)N(C)C; NMeLys(Me) = CNCCCC[C@H](NC)C(=O)O; NMeI = CC[C@H](C)[C@H](NC)C(=O)O; NMeT = CN[C@H](C(=O)O)[C@@H](C)O; NMeL = CN[C@@H](CC(C)C)C(=O)O; NMeDap = CN[C@@H](CN)C(=O)O; dHiv = CC(C)[C@@H](O)C(=O)O; NMeA = CN[C@@H](C)C(=O)O; dNMeA = CN[C@H](C)C(=O)O

Tests used:
Type in all cases: functional, cell-based
U-87 MG [1] = experiment: Antiproliferative activity against human U-87 MG cells expressing GLuc assessed as as inhibition of GLuc secretion incubated for 18 hrs by CellTiter-Glo Luminescent Cell Viability Assay; details: U-87MG ATCC
U-87 MG [2] = experiment: Antiproliferative activity against human U87 cells expressing GLuc assessed as inhibition of GLuc secretion incubated for 18 hrs by CellTiter-Glo Luminescent Cell Viability Assay; details: U-87MG ATCC, dose 0.1-10 µM
U-87 MG [3] = experiment: Antiproliferative activity against human U-87MG cells expressing GLuc assessed as cell viability at 0.0003 to 300 nM incubated for 18 hrs by CellTiter-Glo Luminescent Cell Viability Assay; details: U-87MG ATCC, dose 0.0003-300 nM
SF-268 [4] = experiment: Downregulation of VEGF-A protein secretion level in human SF-268 cells at 30 to 300 nM for 24 hrs by ELISA analysis; details: dose 30-300 nM
SF-268 [5] = experiment: Inhibition of endogenously-secreted VEGF-A in human SF-268 cells incubated for 24 hrs by ELISA assay; details: dose 30-100 nM
SF-268 [6] = experiment: Downregulation of VEGF-A protein secretion level in human SF-268 cells for 24 hrs by ELISA analysis; details: dose 30-100 nM

Structure (SMILES) | inhibition (U-87 MG [1]) | Activity (U-87 MG [2]) | inhibition (U-87 MG [3]) | Activity (SF-268 [4]) | inhibition (SF-268 [5]) | Activity (SF-268 [6])
CC[C@H](C)[C@H]1C(=O)N[C@@H](C)C(=O)N(C)[C@@H](CC(C)C)C(=O)N[C@@H](Cc2ccc(OC)cc2)C(=O)N(C)[C@H](C)C(=O)NC[C@H](N(C)C(=O)[C@H](CC(C)C)N(C)C(=O)[C@H](C)N(C)C(=O)[C@H](OC(=O)[C@H](C(C)C)N(C)C)C(C)C)C(=O)N(C)[C@@H](C)C(=O)N1C (NMe2Val-[dHiv][NMeA][NMeL][NMeDap][NMeA][NMeI]A[NMeL]Y(Me)[dNMeA]; lactam 4-C) | Dose-Dependent Effect | Dose-Dependent Effect | inactive | – | – | –
CC[C@H](C)[C@H]1C(=O)N[C@@H](C)C(=O)N(C)[C@@H](CC(C)C)C(=O)N[C@@H](Cc2ccc(OC)cc2)C(=O)N(C)[C@H](C)C(=O)O[C@H](C)[C@H](N(C)C(=O)[C@H](CC(C)C)N(C)C(=O)[C@H](C)N(C)C(=O)[C@H](OC(=O)[C@H](C(C)C)N(C)C)C(C)C)C(=O)N(C)[C@@H](C)C(=O)N1C (NMe2Val-[dHiv][NMeA][NMeL][NMeT][NMeA][NMeI]A[NMeL]Y(Me)[dNMeA]; ester 4-C) | Dose-Dependent Effect | Dose-Dependent Effect | inactive | – | – | –
CC[C@H](C)[C@H]1C(=O)N[C@@H](C)C(=O)N(C)[C@@H](CC(C)C)C(=O)N[C@@H](Cc2ccc(OC)cc2)C(=O)N(C)CCCC[C@H](N(C)C(=O)[C@H](CC(C)C)N(C)C(=O)[C@H](C)N(C)C(=O)[C@H](OC(=O)[C@H](C(C)C)N(C)C)C(C)C)C(=O)N(C)[C@@H](C)C(=O)N1C (NMe2Val-[dHiv][NMeA][NMeL][NMeLys(Me)][NMeA][NMeI]A[NMeL]Y(Me); lactam 4-C) | Dose-Dependent Effect | Dose-Dependent Effect | inactive | Dose-Dependent Effect | Dose-Dependent Effect | –
CC[C@H](C)[C@H]1C(=O)N[C@@H](C)C(=O)N(C)[C@@H](CC(C)C)C(=O)N[C@@H](Cc2ccc(OC)cc2)C(=O)N(C)[C@H](C)C(=O)N(C)C[C@H](N(C)C(=O)[C@H](CC(C)C)N(C)C(=O)[C@H](C)N(C)C(=O)[C@H](OC(=O)[C@H](C(C)C)N(C)C)C(C)C)C(=O)N(C)[C@@H](C)C(=O)N1C | Dose-Dependent Effect | – | inactive | – | – | –
CC[C@H](C)[C@H]1C(=O)N[C@@H](C)C(=O)N(C)[C@@H](CC(C)C)C(=O)N[C@@H](Cc2ccc(OC)cc2)C(=O)N(C)[C@H](C)CC[C@H](C)[C@H](N(C)C(=O)[C@H](CC(C)C)N(C)C(=O)[C@H](C)N(C)C(=O)[C@H](OC(=O)[C@H](C(C)C)N(C)C)C(C)C)C(=O)N(C)[C@@H](C)C(=O)N1C | Dose-Dependent Effect | Dose-Dependent Effect | inactive | Dose-Dependent Effect | Dose-Dependent Effect | –
CC[C@H](C)[C@H]1C(=O)N[C@@H](C)C(=O)N(C)[C@@H](CC(C)C)C(=O)N[C@@H](Cc2ccc(OC)cc2)C(=O)N(C)[C@H](C)C(=O)N[C@H](C)[C@H](N(C)C(=O)[C@H](CC(C)C)N(C)C(=O)[C@H](COC)N(C)C(=O)[C@H](OC(=O)[C@H](C(C)C)N(C)C)C(C)C)C(=O)N(C)[C@@H](COC)C(=O)N1C | Dose-Dependent Effect | Dose-Dependent Effect | inactive | – | Dose-Dependent Effect | Dose-Dependent Effect
CC[C@H](C)[C@H]1C(=O)N[C@@H](C)C(=O)N(C)[C@@H](CC(C)C)C(=O)N[C@@H](Cc2ccc(OC)cc2)C(=O)N(C)[C@H](C)/C=C/[C@H](C)[C@H](N(C)C(=O)[C@H](CC(C)C)N(C)C(=O)[C@H](C)N(C)C(=O)[C@H](OC(=O)[C@H](C(C)C)N(C)C)C(C)C)C(=O)N(C)[C@@H](C)C(=O)N1C | Dose-Dependent Effect | Dose-Dependent Effect | inactive | – | – | –
CC[C@H](C)[C@H]1C(=O)N[C@@H](C)C(=O)N(C)[C@@H](CC(C)C)C(=O)N[C@@H](Cc2ccc(-c3ccccc3)cc2)C(=O)N(C)[C@H](C)C(=O)N[C@H](C)[C@H](N(C)C(=O)[C@H](CC(C)C)N(C)C(=O)[C@H](COC)N(C)C(=O)[C@H](OC(=O)[C@H](C(C)C)N(C)C)C(C)C)C(=O)N(C)[C@@H](COC)C(=O)N1C | Dose-Dependent Effect | Dose-Dependent Effect | inactive | – | – | –
CC[C@H](C)[C@H]1C(=O)N[C@@H](C)C(=O)N(C)[C@@H](CC(C)C)C(=O)N[C@@H](Cc2ccc(OC)cc2)C(=O)N(C)[C@H](C)C(=O)N[C@H](C)[C@H](N(C)C(=O)[C@H](CC(C)C)N(C)C(=O)[C@H](C)N(C)C(=O)[C@H](OC(=O)[C@H](C(C)C)N(C)C)C(C)C)C(=O)N(C)[C@@H](C)C(=O)N1C | Dose-Dependent Effect | Dose-Dependent Effect | inactive | – | – | –
